Source: patent US9399675B2, “Methods and compositions for diagnosing Alzheimer's disease and age-related macular degeneration” (The Board of Regents of the University of Oklahoma, priority 2007, dated 2016)

Assays:
HUVECs [1] = experiment: ELISA of released CAP37 in supernatants of HUVEC cultures; assay type: cell-based, human; conditions: supernatants of treated HUVEC cultures
Source text: Flow cytometry confirmed the studies described in FIG. 5. TNFα treated cells that were permeabilized indicated up to a 5-fold increase of CAP37 expression over untreated cells (FIG. 6). […] To determine whether CAP37 is released from treated endothelial cells, ELISA was used to analyze supernatants from TNFα treated HUVEC cultures. Levels of released CAP37 from treated HUVECs were two-fold over untreated cells (data not shown). It was clear that the amount and proportion of CAP37 released from HUVECs was in general much less than the amount and proportion of CAP37 released from PMN (6). Almost 90% of total CAP37 is released from PMN following phagocytosis (6).

HUVECs [2] = experiment: Flow cytometry of cell associated CAP37 in HUVECs; assay type: cell-based, human; conditions: 10 ng/ml TNFα, permeabilized HUVECs
Procedure: FIG. 6: Flow cytometric analysis of cell associated CAP37 in HUVECs. HUVECs were incubated 18 h in the absence (unt) or presence of 10 ng/ml TNFα (TNFα), permeabilized and labeled with antisera to human CAP37 or normal serum control. Cells were permeabilized to determine intracellular levels of CAP37. A representative histogram from two independent experiments. The shift due to FITC-staining indicates increased expression of CAP37 in TNFα stimulated cells. Also indicated is a low level of constitutive CAP37 expression (unt).
HUVECs that were serum starved for 6 h were incubated in the absence or presence of 10 ng/ml TNFα for 10 h and 18 h. Permeabilized and non-permeabilized cells were fixed and stained essentially as described by Gräbner (18). The cells were first blocked with 4% normal donkey serum (JACKSON), then incubated at 4° C. with rabbit anti-human CAP37 antisera (1:300), and followed by biotin-sp-donkey F(ab′)2 anti-rabbit IgG, (JACKSON, 1:200) at 4° C. For detection the cells were incubated with fluorescein (DTAF)-conjugated streptavidin (JACKSON) at 2 μg/ml at 4° C. Cells were analyzed by flow cytometry (FACSCALIBUR, BECTON DICKINSON, San Jose, Calif.). Unstained cells and cells stained with normal rabbit serum were included as controls.

[3] = test system: Human neuronal cells (ATCC, HCN-1A); experiment: Dot blot of released CAP37 in supernatants of human neuronal cells; assay type: cell-based; conditions: 75 μg/ml, 12 hrs, HCN-1A neurons
Procedure: FIG. 10: Dot blot analysis of supernatants from human neuronal cells in vitro with anti-CAP37 antiserum. Top row (from left to right) consists of CAP37 standards, at 20, 10, 5 and 2.5 μg/ml. 2nd row consists of doubling dilutions of supes from β-amyloid treated neuronal cultures. Row 3 consists of doubling dilutions of supes from untreated neuronal cultures. Row 4-no antigen/control.
The expression of CAP37 in neurons was further corroborated using in vitro culture. Human neuronal cells (ATCC, HCN-1A) were cultured according to specifications, transferred to serum-free medium for 6 hr and treated with β-amyloid fragment 1-42 (75 μg/ml), control peptide 40-1 (75 μg/ml), and media for 12 hrs. Supernatants were analyzed by dot blot for presence of released CAP37 (FIG. 10) and cells stained with anti-CAP37 antiserum (FIG. 11A) and normal mouse serum (FIG. 11B) to determine cell-associated CAP37.

| Substance | levels of released CAP37 over untreated cells (HUVECs [1]) | increase of CAP37 expression over untreated cells (HUVECs [2]) [fold] | concentration of released (secreted) CAP37 in supernatants [3] |
| --- | --- | --- | --- |
| TNFα | two-fold | ≤ 5 |  |
| β-amyloid fragment 1-42: toxic 42-amino acid beta-amyloid peptide used to induce CAP37 in human neurons |  |  | approximately 2.5 μg/ml |
